# Reference: patent US4620871A (priority 1980, dated 1986)
# How the values were obtained:
# leaves of Pinto beans = assay: Stimulation of carbon dioxide fixation, Pinto beans (Example 21); details: for Radioactivity A: A = in the light, control 2.14; for Radioactivity A / Radioactivity B / Radioactivity C / Stimulation: zeatin 20, kinetin/benzyladenine 30, others 200 ppm; for Radioactivity B: B = in the dark, control 0.18; for Radioactivity C: C = photosynthetic, control 2.32
# Procedure: The tests were performed on leaves of Pinto beans. The leaf segments were treated with an endogeneous cytokinin (zeatin), synthetic cytokinins (kinetin, benzyladenine) or with the compositions according to the invention, respectively, by floating the leaf segments on the solution of the test substance for 18 hours, thereafter the leaf segments were exposed to labelled carbon dioxide (activity: 100 μCi/5000 ml of ^14 CO2) for 0.5 hours.
# Soybean = assay: Total and protein nitrogen content of soybean (Example 39); assay type: in vivo; details: for Protein nitrogen content: control 1.9; for Total nitrogen content: control 2.6; for Protein nitrogen content, increase / Total nitrogen content, increase: in vivo
# Description: The effects of 1,4-dihydroxyphthalazine and salts thereof exerted on the total nitrogen content and protein nitrogen content of soybean were examined as described in Example 27. The plants were sprayed with the compositions according to the invention at the beginning of the flowering of the apical cluster.
# leaves of Pinto bean [1] = assay: Stimulation of photolytic activity, HTO, Pinto bean (Example 23); details: 18 hours, zeatin 20, kinetin/benzyladenine 30, others 200 ppm; for Photolytic activity: control 7.64
# Procedure: The stimulating effects of an endogeneous cytokinin (zeatin), synthetic cytokinins (kinetin, benzyladenine) and the cytokinin-like regulators according to the invention exerted on the photolytic activity connected to the decomposition of HTO were examined on leaves of Pinto bean. The leaf discs were floated for 18 hours on solutions of the substances under examination, and then exposed to a radioactivity of 200 μCi/100 ml for one hour to effect photolysis of HTO.
# leaves of Pinto bean [2] = assay: Protein synthesis, glycine-2-14C incorporation in Pinto bean leaves (Example 19); details: 18 hours, zeatin 20 ppm, kinetin/benzyladenine 30 ppm, others 200 ppm; for Radioactivity of the TCA-insoluble fraction: control 3.17
# Procedure: The tests were performed on leaves of Pinto bean. The leaf segments were treated with an endogeneous cytokinin (zeatin), synthetic cytokinins (kinetin, benzyladenine) or with the compositions according to the invention, respectively, by floating the leaf segments on the solution of the test substance for 18 hours. Thereafter the leaf segments were exposed to a labelled amino acid (glycine-2-^14 C) for 3 hours, and the incorporation of the amino acid was determined by radiometry.
# Pinto bean = assay: Stimulation of membrane activity (nitrate uptake), Pinto bean (Example 25); assay type: in vivo; details: zeatin 20, kinetin/benzyladenine 30, others 200 ppm; for Protein nitrogen / Total nitrogen: 2 weeks; for Protein nitrogen: control 2.4; for Total nitrogen: control 3.8; for Protein nitrogen content in % of the total nitrogen content: control 63
# Procedure: The tests were performed on Pinto bean. The plants were treated with solutions of an endogeneous cytokinin (zeatin), synthetic cytokinins and membraneactive regulators according to the invention, respectively, and the leaves of the plants were analyzed 2 weeks after the treatment.
# Pinto beans = assay: Preservation of chlorophyll in Pinto beans (Example 17); assay type: in vivo; details: zeatin 20 ppm, kinetin/benzyladenine 30 ppm, others 200 ppm; for Extinction: 665 mμ, 200 mg fresh weight, 2 weeks
# Procedure: Endogeneous and synthetic cytokinins were applied as comparative substances. Solutions with varying concentrations, but always more dilute than 10^-4 moles, were applied in the tests.
# The tests were performed on Pinto beans. The plants were treated with an endogenous cytokinin (zeatine), synthetic cytokinins (kinetin, benzyladenine) or cytokinin-like compounds, respectively, and the chlorophyll content of the leaves was determined 2 weeks after the treatment by measuring the extinction of the extract of the leaves at 665 mμ.
# [3] = tested on: Egri leanyka vine variety; assay: Berry yield and sugar content of vine, Egri leanyka (Example 33); assay type: in vivo; details: for Berry yield: 3 x 2 kg/ha, control 151.15; for Sugar content: control 16.7; for Sugar yield: control 18.93
# Procedure: (§1) Vine stands were sprayed with the compositions according to the invention to examine their effects exerted on the berry yield and sugar content. The compositions, diluted with water, were sprayed three times onto the plants. The first treatment was performed prior to flowering, the second one three weeks later, and the third one six weeks after the first one. The dose applied was 2 kg/ha in each of the treatments.
# (§2) Comparative tests were also performed with commonly used growth regulating compositions, i.e. CCC (chlorocholine chloride), Ethrel (or Etefon; 2-chloroethylphosphonic acid) and Nevirol (N-phenyl-phthalaiminic acid). The results were compared to those observed with the untreated controls.
# (§3) Two vine varieties, Pannonia and Egri leanyka, were involved in the tests.
# Pannonia vine variety = assay: Berry yield and sugar content of vine, Pannonia (Example 33); assay type: in vivo; details: for Berry yield: 3 x 2 kg/ha, control 216; for Sugar content: control 13.0; for Sugar yield: control 28.08
# Procedure: as §1, §2, §3
# Tobacco callus = assay: Growth of tobacco callus vs kinetin (Example 14); assay type: cell-based; details: 2 ppm active agent; for Dry weight of the callus / Speed of growth: kinetin 1 ppm; for activity at 2 ppm: Nicotiana tabacum, 504 h, kinetin 1 ppm = 100, read-out: Speed of growth, Index %
# Procedure: An untreated culture medium served as control. Tobacco callus was grown on the treated and untreated culture media (incubation period: 3 weeks), and the daily growth, the increase in cell number and the frequency of mitosis were measured according to the method of Skoog.
# The test described in Example 13 was repeated so that a culture medium containing 1 ppm of kinetin was used as control, and the compositions according to the invention were applied in amounts corresponding to 2 ppm of active agent.
# [4] = tested on: callus isolated from Datura innoxia Mill. roots; assay: Growth of callus isolated from Datura innoxia Mill. roots (Example 15); assay type: cell-based; details: with kinetin (2 ppm)
structure (smiles),measurement,setting,value
"N=C(N)N.Oc1nnc(O)c2ccccc12 [1,4-Dihydroxy-phthalazine monoguanidine salt]",Radioactivity A,leaves of Pinto beans,3.75 dpm/200 mg fresh weight
same,Radioactivity B,leaves of Pinto beans,0.28 dpm/200 mg fresh weight
same,Radioactivity C,leaves of Pinto beans,3.47 dpm/200 mg fresh weight
same,Stimulation,leaves of Pinto beans,50.7%
"NN.NN.Oc1nnc(O)c2ccccc12 [1,4-Dihydroxyphthalazine dihydrazine salt]",Protein nitrogen content,Soybean,3.6 % of dry substance
same,Total nitrogen content,Soybean,3.9 % of dry substance
same,"Protein nitrogen content, increase",Soybean,89.5%
same,"Total nitrogen content, increase",Soybean,50.0%
"NN.Oc1nnc(O)c2ccccc12 [1,4-Dihydroxyphthalazine hydrazine salt]",Protein nitrogen content,Soybean,3.1 % of dry substance
same,Total nitrogen content,Soybean,3.7 % of dry substance
same,"Protein nitrogen content, increase",Soybean,63.2%
same,"Total nitrogen content, increase",Soybean,42.4%
"c1ccc(CNc2ncnc3[nH]cnc23)cc1 [Benzyladenine, benzyladenine]",Stimulation,leaves of Pinto bean [1],125%
same,Photolytic activity,leaves of Pinto bean [1],17.21 dpm/mg of glucose
same,Radioactivity A,leaves of Pinto beans,4.87 dpm/200 mg fresh weight
same,Radioactivity B,leaves of Pinto beans,0.41 dpm/200 mg fresh weight
same,Radioactivity C,leaves of Pinto beans,5.28 dpm/200 mg fresh weight
same,Stimulation,leaves of Pinto beans,128.0%
same,Stimulation,leaves of Pinto bean [2],87.0%
same,Radioactivity of the TCA-insoluble fraction,leaves of Pinto bean [2],5.92 1000 dpm/200 mg fresh weight
same,Protein nitrogen,Pinto bean,2.8 % of dry weight
same,Total nitrogen,Pinto bean,3.8 % of dry weight
same,"Protein nitrogen, stimulation",Pinto bean,16.6%
same,Protein nitrogen content in % of the total nitrogen content,Pinto bean,73%
same,Extinction,Pinto beans,1.229
same,Promotion,Pinto beans,83.1%
"C[N+](C)(C)CCCl.[Cl-] [CCC, 2-chloroethyltrimethyl-ammonium chloride]",Berry yield,[3],144.61 q/ha
same,Sugar content,[3],17.0%
same,Sugar yield,[3],18.44 q/ha
same,"Sugar content, increase",Pannonia vine variety,23.0%
same,Berry yield,Pannonia vine variety,175 q/ha
same,Sugar content,Pannonia vine variety,16.0%
same,Sugar yield,Pannonia vine variety,28.0 q/ha
"O=P(O)(O)CCCl [Ethrel, 2-chloroethylphosphonic acid]","Berry yield, increase",[3],8.9%
same,"Sugar yield, increase",[3],2.3%
same,Berry yield,[3],164.61 q/ha
same,Sugar content,[3],15.7%
same,Sugar yield,[3],19.38 q/ha
same,"Sugar content, increase",Pannonia vine variety,7.5%
same,Berry yield,Pannonia vine variety,194 q/ha
same,Sugar content,Pannonia vine variety,14.0%
same,Sugar yield,Pannonia vine variety,27.2 q/ha
c1coc(CNc2ncnc3[nH]cnc23)c1 [Kinetin],Stimulation,leaves of Pinto bean [1],82%
same,Photolytic activity,leaves of Pinto bean [1],13.96 dpm/mg of glucose
same,Radioactivity A,leaves of Pinto beans,4.15 dpm/200 mg fresh weight
same,Radioactivity B,leaves of Pinto beans,0.37 dpm/200 mg fresh weight
same,Radioactivity C,leaves of Pinto beans,4.52 dpm/200 mg fresh weight
same,Stimulation,leaves of Pinto beans,95.2%
same,Dry weight of the callus,Tobacco callus,174.11 mg
same,Speed of growth,Tobacco callus,97.17
same,activity at 2 ppm,Tobacco callus,100%
same,Stimulation,leaves of Pinto bean [2],69.4%
same,Radioactivity of the TCA-insoluble fraction,leaves of Pinto bean [2],5.36 1000 dpm/200 mg fresh weight
same,Protein nitrogen,Pinto bean,2.8 % of dry weight
same,Total nitrogen,Pinto bean,3.8 % of dry weight
same,"Protein nitrogen, stimulation",Pinto bean,16.6%
same,Protein nitrogen content in % of the total nitrogen content,Pinto bean,73%
same,Dry substance,[4],3.52%
same,Dry weight of the callus,[4],175.06 mg
same,Fresh weight of the callus,[4],4.9694 g
same,"Growth, dry weight",[4],15.56
same,"Growth, fresh weight",[4],15.56
same,Speed of growth,[4],98.28 mg/day
same,Extinction,Pinto beans,1.120
same,Promotion,Pinto beans,66.0%
CCCn1cnc2ccccc21 [N--(n-Propyl)-benzimidazolium chloride],Dry weight of the callus,Tobacco callus,194.09 mg
same,Speed of growth,Tobacco callus,116.89
same,activity at 2 ppm,Tobacco callus,119%
"O=C(O)c1ccccc1C(=O)Nc1ccccc1 [Nevirol, N-phenyl-phthalaiminic acid]","Berry yield, increase",[3],11.9%
same,"Sugar yield, increase",[3],9.9%
same,Berry yield,[3],169.22 q/ha
same,Sugar content,[3],16.4%
same,Sugar yield,[3],20.81 q/ha
same,"Sugar content, increase",Pannonia vine variety,18.4%
same,"Sugar yield, increase",Pannonia vine variety,30%
same,Berry yield,Pannonia vine variety,238 q/ha
same,Sugar content,Pannonia vine variety,15.4%
same,Sugar yield,Pannonia vine variety,36.52 q/ha
C/C(=C\CNc1ncnc2[nH]cnc12)CO [Zeatin],Stimulation,leaves of Pinto bean [1],108%
same,Photolytic activity,leaves of Pinto bean [1],15.94 dpm/mg of glucose
same,"stimulation of CO2 fixation, comparison in words",leaves of Pinto beans,the most potent stimulating agent
same,Radioactivity A,leaves of Pinto beans,5.12 dpm/200 mg fresh weight
same,Radioactivity B,leaves of Pinto beans,0.46 dpm/200 mg fresh weight
same,Radioactivity C,leaves of Pinto beans,5.58 dpm/200 mg fresh weight
same,Stimulation,leaves of Pinto beans,140.8%
same,Radioactivity of the TCA-insoluble fraction,leaves of Pinto bean [2],6.18 1000 dpm/200 mg fresh weight
same,activation at 20 ppm,leaves of Pinto bean [2]; read-out: Stimulation,95.1%
same,Protein nitrogen,Pinto bean,2.8 % of dry weight
same,Total nitrogen,Pinto bean,3.8 % of dry weight
same,"Protein nitrogen, stimulation",Pinto bean,16.6%
same,Protein nitrogen content in % of the total nitrogen content,Pinto bean,73%
same,Extinction,Pinto beans,1.283
same,Promotion,Pinto beans,91.3%
